In patent publication US20220288001A1, “CREATINE FOR IMMUNOTHERAPY” (The Regents of the University of California, priority 2019, published 2022):

Key:
[1] = test system: skeletal muscle fibers; assay: Histological analysis of skeletal muscle (H&E, muscle-fiber diameter); format: in vivo, mouse; conditions: mice receiving creatine supplements (i.p. or food); biceps femoris
Protocol: Skeletal muscle (biceps femoris) harvested from control (Ctrl) and experimental (Creatine ip and Creatine food) mice were fixed in 10% neutral-buffered formalin and embedded in paraffin for sectioning (5-μm thickness), followed by H&E staining using standard procedures (UCLA Translational Pathology Core Laboratory). The sections were imaged using an Olympus BX51 upright microscope equipped with a Macrofire® CCD camera (Optronics®). The muscle-fiber diameter was assessed with the use of an ImageJ software (NIH).

[2] = test system: MC38 colon cancer; assay: MC38 colon cancer model, creatine supplementation and anti-PD-1 treatment; format: in vivo, mouse; conditions: MC38 (CrT-negative); creatine supplementation alone
Protocol: To establish solid tumors, mice were s.c. injected above the right flank with 1×10^6 B16-OVA or 3×10^5 MC38 cells. Before injection, cells in log phase of growth were harvested and suspended in phosphate-buffered saline (PBS), and 50 μl of cell suspension were injected subcutaneously above the flank. Tumor size was periodically measured with a digital Vernier caliper (Thermo Fisher Scientific). For creatine supplementation via i.p. injection, […] monohydrate (cat #C3630, Sigma-Aldrich) was dissolved in sterile PBS and i.p. injected to experimental animals daily at a dose of 10.5 mg per animal per injection. To study the combination effects of creatine supplementation and PD-1/PD-L1 blockade treatment, B6 mice were inoculated with MC38 tumor cells and monitored for tumor growth; experimental mice also received i.p. supplement of creatine, as well as i.p. injection of an anti-PD-1 blocking antibody (clone RMP1-14; 300 μg/mouse/injection, twice per week) or an isotype control antibody (clone 2A3; 300 μg/mouse/injection, twice per week), alone or in combination. Tumor-free mice were maintained for three months, then challenged with MC38 tumor cells again and monitored for tumor recurrence over another 6-month period.

[3] = test system: Zap-70; assay: Western blot of TCR proximal signaling in CD8 T cells with creatine supplementation; format: cell-based, mouse; conditions: CrT-WT CD8 T cells; creatine 0.5 mM; anti-CD3 stimulation
Protocol: CD8 T cells were cultured in vitro in standard T cell culture medium comprising RPMI 1640 (Cat #10040, Corning), 10% FBS (Cat #F2442, Sigma), 1% Penicillin-Streptomycin-Glutamine (Cat #10378016, Gibco), 1% MEM Non-Essential Amino Acids Solution (Cat #11140050, Gibco), 1% HEPES (Cat #15630080, Gibco), 1% Sodium Pyruvate (100 mM) (Cat #11360070, Gibco), and 0.05 mM β -Mercaptoethanol (Cat #M3148, Sigma). Unless otherwise indicated, cells were seeded at 0.5×10^6 cells per well in 24-well plates and stimulated with plate-bound anti-CD3 (5 μg/ml) (clone 145-2C11), for up to 5 days. At indicated time point(s), cells were collected and analyzed for CrT mRNA expression using qPCR, for cell proliferation through cell counting, for viability through Annexin V/7-AAD staining followed by flow cytometry analysis, for surface activation marker (CD25) expression through surface staining followed by flow cytometry analysis, for effector molecule (Granzyme B, IL-2, and IFN-γ) production through intracellular staining followed by flow cytometry analysis, and for cytokine (IL-2 and IFN-γ) secretion through collecting cell culture supernatants followed by ELISA analysis. CrT protein expression and TCR signaling events were analyzed using western blot analysis. […]

SMILES: CN(CC(=O)O)C(=N)N [creatine]
- skeletal muscle fiber size [1]: enlargement of skeletal muscle fibers
- tumor suppression [2]: tumor suppression benefits
- Zap-70 phosphorylation [3]: significantly increased
